Measurements published in patent US12234257B2, “Triterpene saponin derivative and use thereof” (KOREA INSTITUTE OF SCIENCE AND TECHNOLOGY, priority 2020, dated 2025).

Legend:
Parameters in all cases: species or system mice (C57BL/6j)
[1] = tested on: MPTP-induced in vivo PD model; test: Wire hanging test; settings: MPTP mice
Protocol: In this study, all animal management and experimental protocols were performed in compliance with guidelines of the Institutional Animal Care and Use Committee of the Korea Institute of Science and Technology. 40 mice (C57BL/6j, male, 8 weeks old) were purchased from SLC Inc. (Shizuoka, Japan). After arrival, every four mice were hosed in each cage (30 cm×18.5 cm×13 cm) and allowed free access to feed and water. All mice were housed under the following constant conditions: lights on from 6:00 to 18:00, a temperature of 23° C.±1° C., and a humidity of 50%±10%. After 7 days of a habituation period, the mice were used in the experiments according to standard protocols. 40 mice were classified into five groups such that eight mice belonged to each group. After the habituation period, all mice were orally administered with a drug every day. […] Each mouse was administered with a single dose of saline/MPTP injection every day for 8 days. […] A time taken for the mouse to fall off the wire was recorded up to 300 seconds. On the day before MPTP administration, the test was performed three times for each mouse, and an average hanging time of three tests was analyzed as an index to evaluate balance, myofunction, and coordination. […] Average latency to fall off the wire onto the bedding material was calculated for each mouse.

[2] = tested on: MPTP-induced in vivo PD model; test: Pole test; settings: MPTP mice, 2 hours
Protocol: In this study, all animal management and experimental protocols were performed in compliance with guidelines of the Institutional Animal Care and Use Committee of the Korea Institute of Science and Technology. 40 mice (C57BL/6j, male, 8 weeks old) were purchased from SLC Inc. (Shizuoka, Japan). After arrival, every four mice were hosed in each cage (30 cm×18.5 cm×13 cm) and allowed free access to feed and water. All mice were housed under the following constant conditions: lights on from 6:00 to 18:00, a temperature of 23° C.±1° C., and a humidity of 50%±10%. After 7 days of a habituation period, the mice were used in the experiments according to standard protocols. 40 mice were classified into five groups such that eight mice belonged to each group. After the habituation period, all mice were orally administered with a drug every day. […] Each mouse was administered with a single dose of saline/MPTP injection every day for 8 days. At 7 days after the final MPTP injection, all mice were sacrificed by cervical dislocation, and then the whole brain, SNpc, and striatum (ST) were excised for biochemical analysis. […] Each mouse was placed on the top of the pole with the head raised up, and a time taken for the mouse to turn and descend the pole was recorded up to 120 seconds with a stopwatch. […] An average time of three tests was calculated to evaluate motor function.

[3] = tested on: MPTP-induced in vivo PD model; test: Rotarod test; settings: MPTP 30 mg/kg i.p. mice; for behavioral performance in rotarod test (latency to fall): 2 hours and 24 hours after last MPTP
Protocol: In this study, all animal management and experimental protocols were performed in compliance with guidelines of the Institutional Animal Care and Use Committee of the Korea Institute of Science and Technology. 40 mice (C57BL/6j, male, 8 weeks old) were purchased from SLC Inc. (Shizuoka, Japan). After arrival, every four mice were hosed in each cage (30 cm×18.5 cm×13 cm) and allowed free access to feed and water. All mice were housed under the following constant conditions: lights on from 6:00 to 18:00, a temperature of 23° C.±1° C., and a humidity of 50%±10%. After 7 days of a habituation period, the mice were used in the experiments according to standard protocols. 40 mice were classified into five groups such that eight mice belonged to each group. After the habituation period, all mice were orally administered with a drug every day. […] Each mouse was administered with a single dose of saline/MPTP injection every day for 8 days. At 7 days after the final MPTP injection, all mice were sacrificed by cervical dislocation, and then the whole brain, SNpc, and striatum (ST) were excised for biochemical analysis. […] A rotarod test was performed according to a known method with minimal modification (Borlongan C. V. et al., Pharmacology Biochemistry and Behavior. 1995, 52:225; Hu X. et al., Neuropharmacology, 2017, 117:352). Briefly, the test consisted of a pretraining section and a test section. The pretraining section was performed for consecutive 4 days. The mice were positioned in a cylinder of a rotarod apparatus such that tails of all mice faced an operator and trained for 300 seconds at a constant speed of 16 rpm. During the 300 seconds, mice falling to the floor were placed back on the cylinder by the operator. All mice were trained three times in total every day at an interval of about 30 minutes before administration of MPTP. […] Latency to fall off the rotarod was recorded for each mouse. […] Latency to fall off the rotarod was measured for each mouse. […] An average time of three tests was calculated to evaluate balance, grip strength, and motor coordination.

Compound	behavior performance in wire hanging test ([1]; 15 mg/kg p.o., 2 hours and 24 hours)	behavior performance in pole test ([2]; 5 mg/kg and 15 mg/kg p.o.)	behavior performance in rotarod test (latency to fall) ([3]; 5 mg/kg p.o., at 24 hours)	behavioral performance in rotarod test (latency to fall) ([3]; 15 mg/kg p.o.)	latency to fall off in wire hanging test ([1]; 5 mg/kg p.o., 2 hours)	behavior performance in pole test ([2]; ropinirole (5 mg/kg p.o.))	behavioral performance in rotarod test (latency to fall) ([3]; 5 mg/kg p.o.)
C[C@@H]1O[C@@H](O[C@@H]2[C@@H](O)[C@H](O[C@@H]3[C@@H](O[C@@H]4OC[C@@H](O)[C@H](O)[C@H]4O)[C@@H](O)[C@H](O[C@H]4[C@H](OC(=O)[C@]56CCC(C)(C)C[C@H]5C5=CC[C@@H]7[C@@]8(C)C[C@H](O)[C@H](O[C@@H]9O[C@H](CO)[C@@H](O)[C@H](O[C@@H]%10OC[C@@H](O)[C@H](O)[C@H]%10O)[C@H]9O)[C@@](C)(CO)[C@@H]8CC[C@@]7(C)[C@]5(C)C[C@H]6O)OC[C@H](O)[C@@H]4O)O[C@H]3C)OC[C@H]2O)[C@H](O)[C@H](O)[C@H]1O [Compound 1, 3-O-β-D-xylopyranosyl-(1→3)-β-D-glucopyranosylpolygalacic acid 28-O-α-L-rhamnopyranosyl-(1→3)-β-D-xylopyranosyl-(1→4)-[β-D-xylopyranosyl-(1→3)]-α-L-rhamnopyranosyl-(1→2)-α-L-arabinopyranosyl ester]	impaired behavior performance was significantly improved	considerably restored	significantly improved MPTP-impaired behavior performance	the impairment was reversed			
CCCN(CCC)CCc1cccc2c1CC(=O)N2 [ropinirole, reference compound]					improved latency deteriorated by MPTP	considerably restored	the impairment was reversed
